The source of these data is patent US8030335B2, “Use of liver X receptor agonists” (Laboratoires Fournier S.A., priority 2005, dated 2011).

In this assay the test system is PDX1 mRNA. Briefly: Real-time quantitative RT-PCR of PDX1 in isolated islets of treated ZDF rats. The assay is classed as in vivo, rat. The following applies: normalized to 18S rRNA, vehicle ZDF 0.17, fa+ 0.38±0.21. As to the method:
Pancreatic and duodenal homeobox gene 1, Pdx1 (Genbank: NM_022852) and facilitated glucose transporter, member 2, Glut2 (Genbank: NM_012879) gene expression were measured by real time quantitative RT-PCR. Total RNAs from fresh isolated rat pancreatic islets were prepared using Rneasy 96 Kit according to the manufacturer's protocol (Qiagen, France), treated with Dnase I to remove contaminating DNA (Stratagene, France), and quantified using the iScript cDNA Synthesis and iQ SYBR Green Supermix kits (Biorad, france). Real-time quantitative RT-PCR was performed using the iCycler Detection System instrument and software (Bio-Rad). As the predicted size of the amplified cDNAs and the Tm values for the primers were similar, uniform amplification conditions were applied (ie. annealing at 60° C.). Specificity of amplified products was monitored by performing melting curves at the end of each amplification. Expression levels were quantified (total RNA units) by generating a six-point serial standard curve. RNA samples were normalized for comparison by determining 18S rRNA levels. In this example, the mRNA expression of PDX1 and Glut2 was determined. As previously described, PDX1 and Glut2 are markers of the regeneration of beta cells. […] PDX1 and Glut2 mRNA expression was increased in islets isolated from GW3965-compared to vehicle-treated ZDF rats. […]

Turning to `O=C(O)Cc1cccc(OCCCN(Cc2cccc(C(F)(F)F)c2Cl)CC(c2ccccc2)c2ccccc2)c1` [GW3965], the “PDX1 mRNA expression” value was determined as 0.35±0.11.
